# According to PubChem BioAssay (NCI):
#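 In this assay, cells in 96-well plates receive the compound at five concentrations for 48 hours. Endpoints are linearly interpolated between the surrounding concentrations. TGI: concentration producing complete growth inhibition.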
# Assays:
# Assay in all cases: NCI anticancer screen, dose series, 48 h
# HOP-18 NSCLC = test system: HOP-18 NSCLC
# OVCAR-4 ovarian = test system: OVCAR-4 ovarian
# SNB-75 CNS = test system: SNB-75 CNS
# OVCAR-3 ovarian = test system: OVCAR-3 ovarian
# NCI-H23 lung = test system: NCI-H23 lung
# CAKI-1 renal = test system: CAKI-1 renal
# HCT-116 colon = test system: HCT-116 colon
# M19-MEL melanoma = test system: M19-MEL melanoma
# A498 renal = test system: A498 renal
# DMS 273 small cell lung = test system: DMS 273 small cell lung
# SNB-19 CNS = test system: SNB-19 CNS
# 786-0 renal = test system: 786-0 renal
# OVCAR-5 ovarian = test system: OVCAR-5 ovarian
# A549 NSCLC = test system: A549 NSCLC
# SF-295 CNS = test system: SF-295 CNS
# KM12 colon = test system: KM12 colon
# U251 CNS = test system: U251 CNS
# UO-31 renal = test system: UO-31 renal
# SK-MEL-28 melanoma = test system: SK-MEL-28 melanoma
# LXFL 529 NSCLC = test system: LXFL 529 NSCLC
# UACC-257 melanoma = test system: UACC-257 melanoma
# HCC-2998 colon = test system: HCC-2998 colon
# K-562 leukemia = test system: K-562 leukemia
# SF-539 CNS = test system: SF-539 CNS
# MALME-3M melanoma = test system: MALME-3M melanoma
# SK-OV-3 ovarian = test system: SK-OV-3 ovarian
# ACHN renal = test system: ACHN renal
# DLD-1 colon = test system: DLD-1 colon
# IGROV1 ovarian = test system: IGROV1 ovarian
# COLO 205 colon = test system: COLO 205 colon
# RPMI-8226 leukemia = test system: RPMI-8226 leukemia
# NCI-H460 lung = test system: NCI-H460 lung
# OVCAR-8 ovarian = test system: OVCAR-8 ovarian
# RXF-631 renal = test system: RXF-631 renal
# SF-268 CNS = test system: SF-268 CNS
# HCT-15 colon = test system: HCT-15 colon
# UACC-62 melanoma = test system: UACC-62 melanoma
# DMS 114 small cell lung = test system: DMS 114 small cell lung
# SK-MEL-5 melanoma = test system: SK-MEL-5 melanoma
# SNB-78 CNS = test system: SNB-78 CNS
# HOP-92 NSCLC = test system: HOP-92 NSCLC
# KM20L2 colon = test system: KM20L2 colon
# HL-60(TB) leukemia = test system: HL-60(TB) leukemia
# NCI-H226 lung = test system: NCI-H226 lung
# TK-10 renal = test system: TK-10 renal
# M14 melanoma = test system: M14 melanoma
# HOP-62 NSCLC = test system: HOP-62 NSCLC
# MOLT-4 leukemia = test system: MOLT-4 leukemia
# EKVX NSCLC = test system: EKVX NSCLC
# SW-620 colon = test system: SW-620 colon
# CCRF-CEM leukemia = test system: CCRF-CEM leukemia
# SN12C renal = test system: SN12C renal
# HT29 colon = test system: HT29 colon
# XF 498 CNS = test system: XF 498 CNS
# SK-MEL-2 melanoma = test system: SK-MEL-2 melanoma
# SR leukemia = test system: SR leukemia
# LOX IMVI melanoma = test system: LOX IMVI melanoma
# RXF 393 renal = test system: RXF 393 renal
smiles,measurement,setting,value
CCOC(=O)/C(C#N)=C(O)/C(=C\c1ccc(Br)cc1)NC(=O)c1ccccc1,TGI,HOP-18 NSCLC,> 100 µM
same,TGI,OVCAR-4 ovarian,> 100 µM
same,TGI,SNB-75 CNS,> 100 µM
same,TGI,OVCAR-3 ovarian,> 100 µM
same,TGI,NCI-H23 lung,> 100 µM
same,TGI,CAKI-1 renal,> 100 µM
same,TGI,HCT-116 colon,34.5 µM
same,TGI,M19-MEL melanoma,> 100 µM
same,TGI,A498 renal,> 100 µM
same,TGI,DMS 273 small cell lung,> 100 µM
same,TGI,SNB-19 CNS,> 100 µM
same,TGI,786-0 renal,> 100 µM
same,TGI,OVCAR-5 ovarian,> 100 µM
same,TGI,A549 NSCLC,> 100 µM
same,TGI,SF-295 CNS,> 100 µM
same,TGI,KM12 colon,> 100 µM
same,TGI,U251 CNS,> 100 µM
same,TGI,UO-31 renal,> 100 µM
same,TGI,SK-MEL-28 melanoma,> 100 µM
same,TGI,LXFL 529 NSCLC,> 100 µM
same,TGI,UACC-257 melanoma,> 100 µM
same,TGI,HCC-2998 colon,> 100 µM
same,TGI,K-562 leukemia,> 100 µM
same,TGI,SF-539 CNS,> 100 µM
same,TGI,MALME-3M melanoma,> 100 µM
same,TGI,SK-OV-3 ovarian,> 100 µM
same,TGI,ACHN renal,> 100 µM
same,TGI,DLD-1 colon,> 100 µM
same,TGI,IGROV1 ovarian,> 100 µM
same,TGI,COLO 205 colon,> 100 µM
same,TGI,RPMI-8226 leukemia,59.6 µM
same,TGI,NCI-H460 lung,> 100 µM
same,TGI,OVCAR-8 ovarian,> 100 µM
same,TGI,RXF-631 renal,> 100 µM
same,TGI,SF-268 CNS,> 100 µM
same,TGI,HCT-15 colon,> 100 µM
same,TGI,UACC-62 melanoma,> 100 µM
same,TGI,DMS 114 small cell lung,> 100 µM
same,TGI,SK-MEL-5 melanoma,> 100 µM
same,TGI,SNB-78 CNS,> 100 µM
same,TGI,HOP-92 NSCLC,> 100 µM
same,TGI,KM20L2 colon,> 100 µM
same,TGI,HL-60(TB) leukemia,> 100 µM
same,TGI,NCI-H226 lung,> 100 µM
same,TGI,TK-10 renal,> 100 µM
same,TGI,M14 melanoma,> 100 µM
same,TGI,HOP-62 NSCLC,> 100 µM
same,TGI,MOLT-4 leukemia,> 100 µM
same,TGI,EKVX NSCLC,> 100 µM
same,TGI,SW-620 colon,51.7 µM
same,TGI,CCRF-CEM leukemia,> 100 µM
same,TGI,SN12C renal,> 100 µM
same,TGI,HT29 colon,> 100 µM
Nc1[nH]c(=O)nc2c1cnn2C1CCCCO1 (centres undefined),TGI,HOP-18 NSCLC,> 100 µM
same,TGI,OVCAR-4 ovarian,> 100 µM
same,TGI,SNB-75 CNS,> 100 µM
same,TGI,NCI-H23 lung,> 100 µM
same,TGI,CAKI-1 renal,> 100 µM
same,TGI,XF 498 CNS,> 100 µM
same,TGI,HCT-116 colon,> 100 µM
same,TGI,A498 renal,> 100 µM
same,TGI,DMS 273 small cell lung,> 100 µM
same,TGI,SNB-19 CNS,> 100 µM
same,TGI,OVCAR-5 ovarian,> 100 µM
same,TGI,A549 NSCLC,> 100 µM
same,TGI,SK-MEL-2 melanoma,> 100 µM
same,TGI,SF-295 CNS,> 100 µM
same,TGI,KM12 colon,> 100 µM
same,TGI,U251 CNS,> 100 µM
same,TGI,UO-31 renal,> 100 µM
same,TGI,SK-MEL-28 melanoma,> 100 µM
same,TGI,LXFL 529 NSCLC,> 100 µM
same,TGI,UACC-257 melanoma,> 100 µM
same,TGI,HCC-2998 colon,> 100 µM
same,TGI,K-562 leukemia,> 100 µM
same,TGI,SF-539 CNS,> 100 µM
same,TGI,MALME-3M melanoma,> 100 µM
same,TGI,ACHN renal,> 100 µM
same,TGI,DLD-1 colon,> 100 µM
same,TGI,IGROV1 ovarian,> 100 µM
same,TGI,COLO 205 colon,> 100 µM
same,TGI,RPMI-8226 leukemia,> 100 µM
same,TGI,NCI-H460 lung,> 100 µM
same,TGI,OVCAR-8 ovarian,> 100 µM
same,TGI,SR leukemia,> 100 µM
same,TGI,RXF-631 renal,> 100 µM
same,TGI,SF-268 CNS,> 100 µM
same,TGI,HCT-15 colon,> 100 µM
same,TGI,SK-MEL-5 melanoma,> 100 µM
same,TGI,SNB-78 CNS,> 100 µM
same,TGI,LOX IMVI melanoma,> 100 µM
same,TGI,HOP-92 NSCLC,> 100 µM
same,TGI,KM20L2 colon,> 100 µM
same,TGI,HL-60(TB) leukemia,> 100 µM
same,TGI,NCI-H226 lung,> 100 µM
same,TGI,TK-10 renal,> 100 µM
same,TGI,M14 melanoma,> 100 µM
same,TGI,MOLT-4 leukemia,> 100 µM
same,TGI,EKVX NSCLC,> 100 µM
same,TGI,SW-620 colon,> 100 µM
same,TGI,CCRF-CEM leukemia,> 100 µM
same,TGI,RXF 393 renal,> 100 µM
same,TGI,SN12C renal,> 100 µM
same,TGI,HT29 colon,> 100 µM
